Measured values: ChEMBL document CHEMBL4507290 (2021)

What was measured:
[1] = target: Insulin receptor-related protein (Homo sapiens) (UniProt P14616); conditions: Compound concentration 1000.0 nM
[2] = target: LIM domain kinase 2 (Homo sapiens) (UniProt P53671); conditions: Compound concentration 1000.0 nM
[3] = target: Aurora kinase A (Homo sapiens) (UniProt O14965); conditions: Compound concentration 1000.0 nM
[4] = target: Interleukin-1 receptor-associated kinase 1 (Homo sapiens) (UniProt P51617); conditions: Compound concentration 1000.0 nM
[5] = target: Bone morphogenetic protein receptor type-1B (Homo sapiens) (UniProt O00238); conditions: Compound concentration 1000.0 nM
Bone morphogenetic protein receptor type-1B (Homo sapiens), sequence (O00238 whole entry): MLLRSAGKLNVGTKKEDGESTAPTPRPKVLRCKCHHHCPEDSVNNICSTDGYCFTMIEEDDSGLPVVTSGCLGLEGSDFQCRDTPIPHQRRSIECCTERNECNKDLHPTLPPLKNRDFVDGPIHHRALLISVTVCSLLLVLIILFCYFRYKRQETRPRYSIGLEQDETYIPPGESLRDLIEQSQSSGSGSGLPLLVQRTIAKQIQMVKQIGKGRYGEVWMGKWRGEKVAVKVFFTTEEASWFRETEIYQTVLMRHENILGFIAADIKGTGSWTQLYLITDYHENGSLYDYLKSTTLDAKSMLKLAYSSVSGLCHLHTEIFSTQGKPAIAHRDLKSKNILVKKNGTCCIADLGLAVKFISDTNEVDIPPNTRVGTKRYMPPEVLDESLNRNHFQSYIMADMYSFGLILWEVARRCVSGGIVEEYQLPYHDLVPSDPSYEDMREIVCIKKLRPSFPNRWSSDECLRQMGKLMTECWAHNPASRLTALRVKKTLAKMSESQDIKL

[6] = target: Mitogen-activated protein kinase 11 (Homo sapiens) (UniProt Q15759); conditions: Compound concentration 1000.0 nM
[7] = target: Cyclin-dependent kinase 13 (Homo sapiens) (UniProt Q14004); conditions: Compound concentration 1000.0 nM
[8] = system: Tyrosine-protein kinase ABL1 (Homo sapiens), P00519 [F317I]; conditions: Compound concentration 1000.0 nM
[9] = system: Tyrosine-protein kinase ABL1 (Homo sapiens), P00519 [F317L]; conditions: Compound concentration 1000.0 nM
[10] = system: Receptor-type tyrosine-protein kinase FLT3 (Homo sapiens), P36888 [N841I]; conditions: Compound concentration 1000.0 nM
[11] = target: MAP kinase-interacting serine/threonine-protein kinase 1 (Homo sapiens) (UniProt Q9BUB5); conditions: Compound concentration 1000.0 nM
[12] = target: Dual specificity protein kinase TTK (Homo sapiens) (UniProt P33981); conditions: Compound concentration 1000.0 nM
[13] = target: Serine/threonine-protein kinase PAK 4 (Homo sapiens) (UniProt O96013); conditions: Compound concentration 1000.0 nM
[14] = target: Ribosomal protein S6 kinase alpha-5 (Homo sapiens) (UniProt O75582); conditions: Compound concentration 1000.0 nM
[15] = target: T1, D(2) dopamine receptor (Homo sapiens, UniProt P14416); conditions: Compound concentration 10.0 uM
[16] = system: Tyrosine-protein kinase ABL1 (Homo sapiens), P00519 [T315I]; conditions: Compound concentration 1000.0 nM
[17] = system: Epidermal growth factor receptor (Homo sapiens), P00533 [UNDEFINED MUTATION]; conditions: Compound concentration 1000.0 nM
Epidermal growth factor receptor (Homo sapiens), P00533 [UNDEFINED MUTATION], sequence (P00533 whole entry, looked up, change not shown): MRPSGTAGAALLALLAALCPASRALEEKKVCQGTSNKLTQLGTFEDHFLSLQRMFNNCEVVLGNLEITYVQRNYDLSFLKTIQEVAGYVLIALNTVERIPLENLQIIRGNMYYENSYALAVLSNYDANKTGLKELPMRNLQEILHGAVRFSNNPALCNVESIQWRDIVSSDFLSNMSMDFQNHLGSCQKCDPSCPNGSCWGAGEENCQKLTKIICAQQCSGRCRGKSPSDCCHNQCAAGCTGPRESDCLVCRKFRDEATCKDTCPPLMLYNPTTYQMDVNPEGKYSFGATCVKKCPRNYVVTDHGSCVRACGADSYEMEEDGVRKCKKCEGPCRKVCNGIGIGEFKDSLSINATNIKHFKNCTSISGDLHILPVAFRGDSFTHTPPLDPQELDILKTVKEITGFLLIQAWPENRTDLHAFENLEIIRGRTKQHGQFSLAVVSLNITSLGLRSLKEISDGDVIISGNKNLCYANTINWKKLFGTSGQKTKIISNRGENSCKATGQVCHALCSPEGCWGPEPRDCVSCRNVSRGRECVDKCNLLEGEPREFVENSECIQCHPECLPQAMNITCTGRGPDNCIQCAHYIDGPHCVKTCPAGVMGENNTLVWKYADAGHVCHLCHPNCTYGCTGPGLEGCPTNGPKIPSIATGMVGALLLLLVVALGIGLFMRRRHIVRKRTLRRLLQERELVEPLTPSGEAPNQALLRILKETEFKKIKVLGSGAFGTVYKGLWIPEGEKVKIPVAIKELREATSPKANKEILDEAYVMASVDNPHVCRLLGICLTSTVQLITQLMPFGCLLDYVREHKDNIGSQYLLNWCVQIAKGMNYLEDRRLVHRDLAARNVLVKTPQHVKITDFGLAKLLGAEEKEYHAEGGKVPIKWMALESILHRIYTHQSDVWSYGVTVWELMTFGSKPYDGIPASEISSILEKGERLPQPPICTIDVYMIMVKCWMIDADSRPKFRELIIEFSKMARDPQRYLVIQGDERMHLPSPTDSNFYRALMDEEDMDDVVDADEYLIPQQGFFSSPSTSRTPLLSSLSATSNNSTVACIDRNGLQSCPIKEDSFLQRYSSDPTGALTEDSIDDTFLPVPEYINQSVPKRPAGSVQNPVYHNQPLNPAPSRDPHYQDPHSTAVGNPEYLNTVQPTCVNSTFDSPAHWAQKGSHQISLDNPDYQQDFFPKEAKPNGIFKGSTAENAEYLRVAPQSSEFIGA

[18] = target: Tyrosine-protein kinase Fgr (Homo sapiens) (UniProt P09769); conditions: Compound concentration 1000.0 nM
Tyrosine-protein kinase Fgr (Homo sapiens), sequence (P09769 2-529 limits assumed): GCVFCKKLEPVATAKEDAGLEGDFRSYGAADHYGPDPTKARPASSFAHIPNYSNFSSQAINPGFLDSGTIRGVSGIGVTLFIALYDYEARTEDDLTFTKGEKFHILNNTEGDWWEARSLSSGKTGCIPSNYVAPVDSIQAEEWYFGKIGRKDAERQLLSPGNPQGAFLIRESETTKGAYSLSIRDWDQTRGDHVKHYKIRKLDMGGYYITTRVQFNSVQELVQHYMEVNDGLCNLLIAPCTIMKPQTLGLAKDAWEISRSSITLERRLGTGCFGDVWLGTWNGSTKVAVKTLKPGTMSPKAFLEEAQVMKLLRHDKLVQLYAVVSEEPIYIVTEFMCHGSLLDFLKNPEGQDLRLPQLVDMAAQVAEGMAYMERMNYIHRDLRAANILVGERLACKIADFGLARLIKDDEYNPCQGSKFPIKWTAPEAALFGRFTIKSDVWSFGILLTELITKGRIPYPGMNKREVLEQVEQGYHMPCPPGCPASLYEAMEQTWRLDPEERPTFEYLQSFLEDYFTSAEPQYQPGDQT

[19] = system: Epidermal growth factor receptor (Homo sapiens), P00533 [UNDEFINED MUTATION]; conditions: Compound concentration 1000.0 nM; remark: listed apart in the source
[20] = target: Calcium/calmodulin-dependent protein kinase type 1G (Homo sapiens) (UniProt Q96NX5); conditions: Compound concentration 1000.0 nM
[21] = target: Serine/threonine-protein kinase STK11 (Homo sapiens) (UniProt Q15831); conditions: Compound concentration 1000.0 nM
[22] = target: Wee1-like protein kinase 2 (Homo sapiens) (UniProt P0C1S8); conditions: Compound concentration 1000.0 nM
[23] = target: Ribosomal protein S6 kinase alpha-4 (Homo sapiens) (UniProt O75676); conditions: Compound concentration 1000.0 nM
[24] = target: 5-hydroxytryptamine receptor 5A (Homo sapiens) (UniProt P47898); conditions: Compound concentration 10.0 uM
[25] = target: Myosin-IIIb (Homo sapiens) (UniProt Q8WXR4); conditions: Compound concentration 1000.0 nM
[26] = target: Tyrosine-protein kinase Lck (Homo sapiens) (UniProt P06239); conditions: Compound concentration 1000.0 nM
[27] = target: Cyclin-dependent kinase 11A (Homo sapiens) (UniProt Q9UQ88); conditions: Compound concentration 1000.0 nM
[28] = system: Tyrosine-protein kinase ABL1 (Homo sapiens), P00519 [M351T]; conditions: Compound concentration 1000.0 nM
[29] = system: Serine/threonine-protein kinase B-raf (Homo sapiens), P15056 [V600E]; conditions: Compound concentration 1000.0 nM
[30] = system: Tyrosine-protein kinase ABL1 (Homo sapiens), P00519 [T315I]; conditions: Compound concentration 1000.0 nM; remark: listed apart in the source
[31] = system: Tyrosine-protein kinase ABL1 (Homo sapiens), P00519 [F317L]; conditions: Compound concentration 1000.0 nM; remark: listed apart in the source
[32] = target: cGMP-dependent protein kinase 2 (Homo sapiens) (UniProt Q13237); conditions: Compound concentration 1000.0 nM
cGMP-dependent protein kinase 2 (Homo sapiens), sequence (Q13237 whole entry): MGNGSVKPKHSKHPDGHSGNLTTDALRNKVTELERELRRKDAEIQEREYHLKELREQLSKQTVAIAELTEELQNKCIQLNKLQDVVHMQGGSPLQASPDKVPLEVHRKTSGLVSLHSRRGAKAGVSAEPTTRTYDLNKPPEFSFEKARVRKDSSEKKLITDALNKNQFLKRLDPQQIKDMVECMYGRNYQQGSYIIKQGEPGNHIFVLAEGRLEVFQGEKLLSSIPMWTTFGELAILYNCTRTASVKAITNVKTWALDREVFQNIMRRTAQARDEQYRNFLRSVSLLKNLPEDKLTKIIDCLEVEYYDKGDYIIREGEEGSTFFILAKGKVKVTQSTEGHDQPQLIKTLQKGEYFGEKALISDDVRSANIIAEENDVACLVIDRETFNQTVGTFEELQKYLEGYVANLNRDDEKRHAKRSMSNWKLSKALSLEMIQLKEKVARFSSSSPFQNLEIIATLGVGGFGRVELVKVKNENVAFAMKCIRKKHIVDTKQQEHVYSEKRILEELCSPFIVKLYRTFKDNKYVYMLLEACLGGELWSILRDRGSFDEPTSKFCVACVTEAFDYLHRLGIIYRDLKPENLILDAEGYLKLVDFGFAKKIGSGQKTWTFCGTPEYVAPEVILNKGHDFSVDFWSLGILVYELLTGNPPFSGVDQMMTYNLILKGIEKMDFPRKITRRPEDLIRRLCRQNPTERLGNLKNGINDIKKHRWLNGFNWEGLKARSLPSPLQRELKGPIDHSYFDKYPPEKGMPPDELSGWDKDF

[33] = target: Homeodomain-interacting protein kinase 3 (Homo sapiens) (UniProt Q9H422); conditions: Compound concentration 1000.0 nM
[34] = target: Death-associated protein kinase 1 (Homo sapiens) (UniProt P53355); conditions: Compound concentration 1000.0 nM
[35] = target: Dual specificity mitogen-activated protein kinase kinase 7 (Homo sapiens) (UniProt O14733); conditions: Compound concentration 1000.0 nM
[36] = target: Citron Rho-interacting kinase (Homo sapiens) (UniProt O14578); conditions: Compound concentration 1000.0 nM
Citron Rho-interacting kinase (Homo sapiens), sequence (O14578 whole entry): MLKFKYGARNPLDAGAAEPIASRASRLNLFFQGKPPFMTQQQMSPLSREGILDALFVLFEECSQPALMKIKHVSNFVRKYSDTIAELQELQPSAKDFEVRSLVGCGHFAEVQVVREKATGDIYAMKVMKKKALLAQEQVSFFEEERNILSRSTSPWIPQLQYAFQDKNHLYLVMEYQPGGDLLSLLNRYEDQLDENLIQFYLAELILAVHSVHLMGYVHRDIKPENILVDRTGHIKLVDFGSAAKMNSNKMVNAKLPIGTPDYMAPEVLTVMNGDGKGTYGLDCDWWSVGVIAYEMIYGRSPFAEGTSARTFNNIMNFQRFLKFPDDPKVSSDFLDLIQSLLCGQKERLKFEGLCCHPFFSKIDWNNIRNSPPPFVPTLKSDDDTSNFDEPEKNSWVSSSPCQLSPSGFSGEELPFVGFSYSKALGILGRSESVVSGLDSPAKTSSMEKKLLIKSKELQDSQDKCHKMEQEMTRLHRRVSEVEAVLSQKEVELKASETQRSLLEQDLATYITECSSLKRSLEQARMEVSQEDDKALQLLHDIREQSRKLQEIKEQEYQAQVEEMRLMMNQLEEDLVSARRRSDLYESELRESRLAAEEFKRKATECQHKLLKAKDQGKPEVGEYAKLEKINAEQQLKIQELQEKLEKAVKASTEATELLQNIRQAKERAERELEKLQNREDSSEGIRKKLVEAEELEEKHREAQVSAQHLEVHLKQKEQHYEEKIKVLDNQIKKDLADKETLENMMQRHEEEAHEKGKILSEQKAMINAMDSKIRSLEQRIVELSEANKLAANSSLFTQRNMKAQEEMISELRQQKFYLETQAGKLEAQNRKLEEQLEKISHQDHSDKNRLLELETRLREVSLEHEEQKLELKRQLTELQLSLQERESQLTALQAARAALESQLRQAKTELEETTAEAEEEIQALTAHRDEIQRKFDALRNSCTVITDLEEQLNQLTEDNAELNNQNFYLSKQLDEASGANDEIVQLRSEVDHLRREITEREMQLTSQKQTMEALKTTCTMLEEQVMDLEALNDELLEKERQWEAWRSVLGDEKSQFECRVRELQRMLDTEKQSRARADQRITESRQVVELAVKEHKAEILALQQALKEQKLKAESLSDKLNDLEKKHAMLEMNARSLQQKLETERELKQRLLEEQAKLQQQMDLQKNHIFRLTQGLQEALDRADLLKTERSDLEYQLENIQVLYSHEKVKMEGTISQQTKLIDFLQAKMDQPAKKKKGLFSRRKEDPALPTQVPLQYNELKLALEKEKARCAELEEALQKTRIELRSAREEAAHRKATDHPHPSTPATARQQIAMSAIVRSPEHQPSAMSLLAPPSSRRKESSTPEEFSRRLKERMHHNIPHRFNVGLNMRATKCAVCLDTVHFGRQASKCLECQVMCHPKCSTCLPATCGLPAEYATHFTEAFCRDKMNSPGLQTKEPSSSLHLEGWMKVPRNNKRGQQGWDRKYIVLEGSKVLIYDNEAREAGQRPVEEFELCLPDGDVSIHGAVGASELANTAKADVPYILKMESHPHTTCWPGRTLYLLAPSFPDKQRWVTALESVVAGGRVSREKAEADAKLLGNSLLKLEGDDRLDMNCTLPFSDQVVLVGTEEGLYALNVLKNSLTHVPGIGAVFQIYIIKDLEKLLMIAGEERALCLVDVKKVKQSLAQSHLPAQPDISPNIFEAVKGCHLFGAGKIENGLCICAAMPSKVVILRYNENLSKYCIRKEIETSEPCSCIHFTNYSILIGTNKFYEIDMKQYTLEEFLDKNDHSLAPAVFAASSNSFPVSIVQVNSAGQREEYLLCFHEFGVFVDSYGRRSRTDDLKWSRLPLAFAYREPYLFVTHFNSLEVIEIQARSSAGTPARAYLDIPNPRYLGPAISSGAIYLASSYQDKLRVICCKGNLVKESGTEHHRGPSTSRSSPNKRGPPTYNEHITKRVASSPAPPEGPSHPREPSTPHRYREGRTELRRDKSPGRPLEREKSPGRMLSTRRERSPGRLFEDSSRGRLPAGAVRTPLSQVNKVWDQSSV

[37] = target: Sodium-dependent dopamine transporter (Homo sapiens, UniProt Q01959); test: […] binding assay (SLC6A3)
[38] = target: 5-hydroxytryptamine receptor 2B (Homo sapiens) (UniProt P41595); conditions: Compound concentration 10.0 uM
[39] = target: Inhibitor of nuclear factor kappa-B kinase subunit beta (Homo sapiens) (UniProt O14920); conditions: Compound concentration 1000.0 nM
[40] = target: Alpha-1D adrenergic receptor (Homo sapiens, UniProt P25100); test: GPCRScan assay: inhibition of Alpha1D; set-up: radioligand conc. used [nm] 0.3 – 1.0, parental cells stable
[41] = GPCRScan assay: inhibition of GABA/PBR; set-up: species or system Rattus norvegicus; radioligand conc. used [nm] 0.3 – 2.0, parental cells brain tissue
[42] = target: Histamine H2 receptor (Homo sapiens) (UniProt P25021); conditions: Compound concentration 10.0 uM
[43] = target: T1, D(2) dopamine receptor; test: GPCRScan assay: inhibition of D2; set-up: radioligand conc. used [nm] 0.4 – 1.0, parental cells stable fibroblast
[44] = target: MAP kinase-activated protein kinase 2 (Homo sapiens) (UniProt P49137); conditions: Compound concentration 1000.0 nM
[45] = target: Hepatocyte growth factor receptor (Homo sapiens) (UniProt P08581); conditions: Compound concentration 1000.0 nM
[46] = target: Alpha-1B adrenergic receptor (Homo sapiens) (UniProt P35368); conditions: Compound concentration 10.0 uM

| Structure (SMILES) | residual activity [1] | residual activity [2] | residual activity [3] | residual activity [4] | residual activity [5] | residual activity [6] | residual activity [7] | residual activity [10] | residual activity [11] | residual activity [12] | residual activity [13] | residual activity [14] | residual activity [16] | residual activity [17] | residual activity [18] | residual activity [19] | residual activity [20] | residual activity [21] | residual activity [22] | residual activity [23] | further results |
| --- | --- | --- | --- | --- | --- | --- | --- | --- | --- | --- | --- | --- | --- | --- | --- | --- | --- | --- | --- | --- | --- |
| CN([C@@H]1CCc2c(CC(=O)O)c3cc(S(C)(=O)=O)ccc3n2C1)S(=O)(=O)c1ccc(F)cc1 | 100% | 100% | 100% | 91% | 100% | 83% | 86% | 100% | 86% | 100% | 100% | 71% | 93% | 82% | 84% | 90% | 100% | 69% | 95% | 100% | residual activity [8]: 76%; residual activity [9]: 90%; inhibition [15]: -3.84%; inhibition [24]: -1.56%; residual activity [25]: 100%; residual activity [26]: 100%; residual activity [27]: 100%; residual activity [28]: 86%; residual activity [29]: 90%; residual activity [30]: 88%; residual activity [31]: 92%; residual activity [32]: 95%; residual activity [33]: 68%; residual activity [34]: 100%; residual activity [35]: 100%; residual activity [36]: 96% |
| CN([C@@H]1CCc2c(CC(=O)O)c3ccccc3n2C1)S(=O)(=O)c1ccc(F)cc1 [MK-7246] | 100% | 100% | 100% | 78% | 100% | 88% | 95% | 100% | 93% | 100% | 100% | 79% | 98% | 100% | 93% | 100% | 100% | 56% | 100% | 100% | Ki [37]: 0.373 µM (not active); inhibition [38]: -4.07%; residual activity [39]: 98%; Ki [40]: 10 µM; Ki [41]: 1.11 µM; pKi [41]: 5.95; inhibition [42]: -1.62%; inhibition [24]: -1.36%; residual activity [25]: 100%; residual activity [26]: 100%; Ki [43]: 3.75 µM; residual activity [27]: 100%; residual activity [28]: 100%; residual activity [44]: 100%; residual activity [32]: 100%; residual activity [33]: 71%; residual activity [45]: 100%; residual activity [34]: 100%; residual activity [36]: 100%; inhibition [46]: -8.18% |
